Experimental data: patent US20150030702A1, “NITRIC OXIDE-[…] DRESSINGS” (priority 2007, published 2015)
Like-named read-outs stand apart in the source and are kept apart here.

What was measured:
[1] = under normal conditions; cited from earlier work
[2] = cited from earlier work
[3] = nitrite 30 mM, 10 mM hydrochloric acid, hydroquinone 30 mM (FIG. 1); followed by a further slow increase
Protocol: The pH was measured prior to addition of hydroquinone and then at time-points indicated following addition of hydroquinone.
The concentration of nitrosothiol concentration can be estimated from the absorbance reading using the molar absorption coefficient for nitrosothiols=approximately 10,000 M^−1 cm^−1.

SMILES: [N]=O [NO, nitric oxide]
- Maximum solubility in water [1]: approximately 1.7 mM

SMILES: O=NO [Nitrite, nitrite]
- pKa ([2]; at 25° C.): about 3.4
- pKa [2]: 3.4

SMILES: O=C(O)O [bicarbonic acid]
- pKa [2]: 6.3

SMILES: Oc1ccc(O)cc1 [hydroquinone, Hydroquinone]
- pH after rapid increase in the presence of hydroquinone [3]: about 5.0
